ChEMBL document CHEMBL1124546, “Synthesis of unsymmetrically substituted 1,4-bis[(aminoalkyl)amino]anthracene-9,10-diones as potential antileukemic agents” (1989)
≈ marks a conversion by molar mass, not a printed value.

Tests used:
P388 [1] = assay: Percent ratio of the medium survival time for P388 murine leukemia in CDF1 mice at 10 mg/kg; type: functional, Mus musculus
P388 [2] = assay: Percent ratio of the medium survival time for P388 murine leukemia in CDF1 mice at 5 mg/kg; type: functional, Mus musculus
P388 [3] = assay: Percent ratio of the medium survival time for P388 murine leukemia in CDF1 mice at 20 mg/kg; type: functional, Mus musculus
[4] = Survivors of CDF1 mice on day 4 after 1st injection of compound at 5 mg/kg in six mice; 6/6; type: functional, Mus musculus
[5] = (§1) Survivors of CDF1 mice on day 4 after 1st injection of compound at 40 mg/kg in six mice; 6/6; type: functional, Mus musculus
P388 [6] = assay: Percent ratio of the medium survival time for P388 murine leukemia in CDF1 mice at 40 mg/kg; type: functional, Mus musculus
[7] = (§2) Survivors of CDF1 mice on day 4 after 1st injection of compound 80 at mg/kg in six mice; 6/6; type: functional, Mus musculus
[8] = Survivors of CDF1 mice on day 4 after 1st injection of compound at 10 mg/kg in six mice; 6/6; type: functional, Mus musculus
[9] = Survivors of CDF1 mice on day 4 after 1st injection of compound at 20 mg/kg in six mice; 6/6; type: functional, Mus musculus
L1210 = assay: Concentration required to inhibit the growth of L1210 leukemia cells; type: functional; conditions: Mus musculus, read-out: ED50 (the source's name)
P388 [10] = assay: Percent ratio of the medium survival time for P388 murine leukemia in CDF1 mice at 80 mg/kg; type: functional, Mus musculus
[11] = Survivors of CDF1 mice on day 4 after 1st injection of compound at 2.5 mg/kg in seven mice; 7/7; type: functional, Mus musculus
[12] = Survivors of CDF1 mice on day 4 after 1st injection of compound at 20 mg/kg in seven mice; 7/7; type: functional, Mus musculus
[13] = Survivors of CDF1 mice on day 4 after 1st injection of compound at 1.25 mg/kg in seven mice; 7/7; type: functional, Mus musculus
[14] = Survivors of CDF1 mice on day 4 after 1st injection of compound at 10 mg/kg in seven mice; 7/7; type: functional, Mus musculus
[15] = Survivors of CDF1 mice on day 4 after 1st injection of compound 40 at mg/kg in seven mice; 5/7; type: functional, Mus musculus
[16] = Survivors of CDF1 mice on day 4 after 1st injection of compound at 5 mg/kg in seven mice; 7/7; type: functional, Mus musculus
P388 [17] = assay: Percent ratio of the medium survival time for P388 murine leukemia in CDF1 mice at 2.5 mg/kg; type: functional, Mus musculus
P388 [18] = assay: Percent ratio of the medium survival time for P388 murine leukemia in CDF1 mice at 1.25 mg/kg; type: functional, Mus musculus
P388 [19] = assay: as §1; type: functional, Mus musculus
P388 [20] = assay: as §2; type: functional, Mus musculus
[21] = Survivors of CDF1 mice on day 4 after 1st injection of compound 25 at mg/kg in six mice; 6/6; type: functional, Mus musculus
[22] = Survivors of CDF1 mice on day 4 after 1st injection of compound at 12.5 mg/kg in six mice; 6/6; type: functional, Mus musculus
[23] = Survivors of CDF1 mice on day 4 after 1st injection of compound at 6.25 mg/kg in six mice; 6/6; type: functional, Mus musculus
P388 [24] = assay: Percent ratio of the medium survival time for P388 murine leukemia in CDF1 mice at 25 mg/kg; type: functional, Mus musculus
[25] = Survivors of CDF1 mice on day 4 after 1st injection of compound at 3.12 mg/kg in six mice; 6/6; type: functional, Mus musculus
P388 [26] = assay: Percent ratio of the medium survival time for P388 murine leukemia in CDF1 mice at 12.5 mg/kg; type: functional, Mus musculus
P388 [27] = assay: Percent ratio of the medium survival time for P388 murine leukemia in CDF1 mice at 6.25 mg/kg; type: functional, Mus musculus
P388 [28] = assay: Percent ratio of the medium survival time for P388 murine leukemia in CDF1 mice at 3.12 mg/kg; type: functional, Mus musculus
[29] = Survivors of CDF1 mice on day 4 after 1st injection of compound at 1.5 mg/kg in six mice; 6/6; type: functional, Mus musculus
P388 [30] = assay: Percent ratio of the medium survival time for P388 murine leukemia in CDF1 mice at 0.75 mg/kg; type: functional, Mus musculus
P388 [31] = assay: Percent ratio of the medium survival time for P388 murine leukemia in CDF1 mice at 12 mg/kg; type: functional, Mus musculus
[32] = Survivors of CDF1 mice on day 4 after 1st injection of compound at 3 mg/kg in six mice; 6/6; type: functional, Mus musculus
[33] = Survivors of CDF1 mice on day 4 after 1st injection of compound at 0.75 mg/kg in six mice; 6/6; type: functional, Mus musculus
[34] = Survivors of CDF1 mice on day 4 after 1st injection of compound 12 at mg/kg in six mice; 6/6; type: functional, Mus musculus
P388 [35] = assay: Percent ratio of the medium survival time for P388 murine leukemia in CDF1 mice at 6 mg/kg; type: functional, Mus musculus
[36] = Survivors of CDF1 mice on day 4 after 1st injection of compound at 6 mg/kg in six mice; 6/6; type: functional, Mus musculus
P388 [37] = assay: Percent ratio of the medium survival time for P388 murine leukemia in CDF1 mice at 3 mg/kg; type: functional, Mus musculus
P388 [38] = assay: Percent ratio of the medium survival time for P388 murine leukemia in CDF1 mice at 1.5 mg/kg; type: functional, Mus musculus

| Structure (SMILES) | T/C (P388 [1]) | T/C (P388 [2]) | T/C (P388 [3]) | Survival [4] | Survival [5] | T/C (P388 [6]) | Survival [7] | Survival [8] | Survival [9] | EC50 (L1210) | further results |
| --- | --- | --- | --- | --- | --- | --- | --- | --- | --- | --- | --- |
| CN(C)CCNc1ccc(NCCNCCO)c2c1C(=O)c1ccccc1C2=O | 151% | 144% | 173% | 6 | 6 | 192% | 6 | 6 | 6 | 0.64 µg/mL (≈ 1.61 µM) | T/C (P388 [10]): 192% |
| O=C1c2ccccc2C(=O)c2c(NCCN3CCOCC3)ccc(NCCNCCO)c21 | 132% |  |  | 6 | 6 |  | 6 | 6 | 6 | 2.36 µg/mL (≈ 5.38 µM) |  |
| NCCNc1ccc(NCCNCCO)c2c1C(=O)c1ccccc1C2=O | 300% | 200% | 300% |  |  | 80% |  |  |  | 2.38 µg/mL (≈ 6.46 µM) | Survival [11]: 7; Survival [12]: 7; Survival [13]: 7; Survival [14]: 7; Survival [15]: 5; Survival [16]: 7; T/C (P388 [17]): 180%; T/C (P388 [18]): 170% |
| O=C1c2ccccc2C(=O)c2c(NCCNCCO)ccc(NCCO)c21 | 125% | 115% | 142% | 6 | 6 | 127% | 6 | 6 | 6 | 12.3 µg/mL (≈ 33.3 µM) | T/C (P388 [10]): 144% |
| CC(C)(CO)NCCNc1ccc(NCCNCCO)c2c1C(=O)c1ccccc1C2=O | 151% |  |  | 6 |  |  |  | 6 | 6 | 1.48 µg/mL (≈ 3.36 µM) | Survival (P388 [19]): 6; Survival (P388 [20]): 6 |
| O=C1c2ccccc2C(=O)c2c(NCCNCCO)ccc(NCCNCCO)c21 [AMETANTRONE] |  |  |  |  |  |  |  |  |  | 2.54 µg/mL (≈ 6.16 µM) | Survival [21]: 6; Survival [22]: 6; Survival [23]: 6; T/C (P388 [24]): 200%; Survival [25]: 6; T/C (P388 [26]): 300%; T/C (P388 [27]): 240%; T/C (P388 [28]): 200% |
| O=C1c2c(O)ccc(O)c2C(=O)c2c(NCCNCCO)ccc(NCCNCCO)c21 [MITOXANTRONE] |  |  |  |  |  |  |  |  |  |  | Survival [29]: 6; T/C (P388 [30]): 209%; T/C (P388 [31]): 118%; Survival [32]: 6; Survival [33]: 6; Survival [34]: 6; T/C (P388 [35]): 192%; Survival [36]: 6; T/C (P388 [37]): 288%; T/C (P388 [38]): 201% |
